Experiment [1] deals with middle instar larvae webbing clothes moth (Tineola bisselliella). The experiment is described as follows: Test Example 2 / Comparative Example 2: pest feed harm on treated wool muslin preserved for 2 weeks before infestation. Type of experiment: in vivo. The arrangement: key: “+++” for a heavy level of the pest feed harm; “++” for a normal level of the pest feed harm; “+” for a minor level of the pest feed harm; “−” for no visual feed harm. As to conditions: preserved at 25±2° C. for 2 weeks before test, 10 larvae, 7 days of infestation, repeats 1-5. The procedure:
One-tenth (0.1) milliliter of acetone solutions composed of 0.1% w/v and 0.3% w/v of the present compound, respectively, was eye-dropped with a pipette onto wool muslins.
Each of the resulting wool muslins was then preserved at 25±2° C. for 2 weeks. After the 2 weeks, each of the wool muslins was placed on the bottom portion of a plastic container.
Ten (10) middle instar larvae webbing clothes moth (Tineola bisselliella) were then placed, respectively, into the plastic container and a nylon net was set on the top portion of the plastic container to cover the opening thereof. After 7 days of infestation under 25±2° C., the pest feed harm on the wool muslins were examined. The standards to the pest feed harm were “+++” for a heavy level of the pest feed harm, “++” for a normal level of the pest feed harm, “+” for a minor level of the pest feed harm and “−” for no visual feed harm. The tests were repeated 5 times.
(§1) Further, as a control, a test utilizing a wool muslin to which no composition was applied was similarly conducted. The control was repeated twice.
One-tenth (0.1) milliliter of acetone solutions composed of 0.1% w/v and 0.3% w/v of Comparative compound 1, respectively, was eye-dropped with a pipette onto wool muslins.
Ten (10) middle instar larvae webbing clothes moth (Tineola bisselliella) were then placed, respectively, into the plastic container and a nylon net was set on the top portion of the plastic container to cover the opening thereof. After 7 days of infestation under 25±2° C., the pest feed harm on the wool muslins were examined. The standards to the pest feed harm were “+++” for a heavy level of the pest feed harm, “++” for a normal level of the pest feed harm, “+” for a minor level of the pest feed harm and “−” for no visual pest feed harm. The comparative experiments were repeated 5 times.

For experiment [2] the test system is unchanged. Kind of experiment: Test Example 1 / Comparative Example 1: pest feed harm on treated wool muslin, infested after drying. The format is in vivo. As to conditions: 10 larvae, 7 days of infestation at 25±2° C., repeats 1-5. More on the design: key: “+++” for a heavy level of the pest feed harm; “++” for a normal level of the pest feed harm; “+” for a minor level of the pest feed harm; “−” for no visual pest feed harm.
From the text: One-tenth (0.1) milliliter of acetone solutions composed of 0.1% w/v and 0.3% w/v of 1-methyl-2-nitro-3-[(3-tetrahydrofuryl)methyl]guanidine (hereinafter referred to as the present compound), respectively, was eye-dropped with a pipette onto wool muslins.
Each of the resulting wool muslins was then allowed to dry and was placed on the bottom portion of a plastic container.
Ten (10) middle instar larvae webbing clothes moth (Tineola bisselliella) were then placed, respectively, into the plastic container, and a nylon net was set on the top portion of the plastic container to cover the opening thereof. After 7 days of infestation under 25±2° C., the pest feed harm on the wool muslins were examined. The standards to the pest feed harm were “+++” for a heavy level of the pest feed harm, “++” for a normal level of the pest feed harm, “+” for a minor level of the pest feed harm and “−” for no visual pest feed harm. The tests were repeated 5 times.
as §1
One-tenth (0.1) milliliter of acetone solutions composed of 0.1% w/v and 0.3% w/v of (E)-1-ethynyl-2-methyl-pent-2-enyl-(1R)-cis,trans-chrysanthemate (hereinafter referred to as comparative compound 1), respectively, was eye-dropped with a pipette onto wool muslins.
Ten (10) middle instar larvae webbing clothes moth (Tineola bisselliella) were then placed, respectively, into the plastic container, and a nylon net was set on the top portion of the plastic container to cover the opening thereof. After 7 days of infestation under 25±2° C., the pest feed harm on the wool muslins were examined. The standards to the pest feed harm were “+++” for a heavy level of the pest feed harm, “++” for a normal level of the pest feed harm, “+” for a minor level of the pest feed harm and “−” for no visual pest feed harm. The comparative experiments were repeated 5 times.

Setting [3] is: application amount 25 mg/m^2 on wool muslin.
[4] abbreviates: application amount 75 mg/m^2 on wool muslin.

Each structure is given as a SMILES string.

Regarding `C#CC(OC(=O)C1C(C=C(C)C)C1(C)C)/C(C)=C/CC` (mixture of isomers) [Comparative compound 1, (E)-1-ethynyl-2-methyl-pent-2-enyl-(1R)-cis,trans-chrysanthemate], the Pest feed harm result in experiment [1] (setting [3]) was “+ + +”; in experiment [1] (setting [4]), “+ + +”; in experiment [2] (setting [3]), “+ + and +”; in experiment [2] (setting [4]), “+ and + +”.

Take `CNC(=N[N+](=O)[O-])NCC1CCOC1` (centres unmarked) [Present compound, 1-methyl-2-nitro-3-[(3-tetrahydrofuryl)methyl]guanidine]: the Pest feed harm entry in experiment [1] (setting [3]), in experiment [1] (setting [4]), in experiment [2] (setting [3]) and in experiment [2] (setting [4]) was “−” each time.
